Experimental data taken from the supplement of paper PMC10702517.
± gives the standard deviation.

Columns and labels:
[1] = chemical recovery into PDMS from spiked human plasma; higher = better extraction; conditions: pooled human plasma, extraction method: PES with PDMS
[2] = chemical recovery by SPE of plasma after PDMS sampling; higher = better extraction; conditions: pooled human plasma, extraction method: HLB SPE of plasma after PES
[3] = chemical recovery from spiked human plasma; higher = better extraction; conditions: pooled human plasma
[4] = extraction method: PES+SPE (3 d PDMS equilibration then HLB SPE)
[5] = extraction method: SPE only (HLB 96-well)
[6] = extraction method: SPE only (HLB 96-well), PES comparison experiment
[7] = extraction method: solvent precipitation (ACN + hexane)
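Wherever chemical recovery by SPE of plasma after PDMS sampling is given: over 400 spiked chemicals quantified by LC-HRMS or GC-HRMS via internal standard calibration, recovery relative to spike mix added to unspiked plasma extract to correct matrix effects.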

Structure (SMILES)	chemical recovery into PDMS ([1]; equilibration time (d): 1) [%]	chemical recovery into PDMS ([1]; equilibration time (d): 3) [%]	chemical recovery into PDMS ([1]; equilibration time (d): 6) [%]	chemical recovery by SPE of plasma ([2]; equilibration time (d): 1) [%]	chemical recovery by SPE of plasma ([2]; equilibration time (d): 3) [%]	chemical recovery by SPE of plasma ([2]; equilibration time (d): 6) [%]	chemical recovery [3, 4] [%]	chemical recovery [3, 5] [%]	chemical recovery [3, 6] [%]	chemical recovery [3, 7] [%]
O=C1Nc2ccc(Cl)cc2C(c2ccccc2)=NC1O (centres undefined) [Oxazepam]	1.81 ± 0.18	3.65 ± 0.36	3.9 ± 0.52	29.1 ± 4	30.4 ± 2.4	27.7 ± 1.9	41.3 ± 2.3	38 ± 3.2	46.6 ± 6	73.9 ± 3.5
Fc1ccc(Oc2ccnc3cc(Cl)cc(Cl)c23)cc1 [Quinoxyfen]	48 ± 4.7	50.5 ± 5.9	48.7 ± 2	–	0.232 ± 0.06	–	–	57.2 ± 16	31.6 ± 5.7	96.2 ± 9.7
Brc1cc(Br)c(Oc2cc(Br)c(Br)cc2Br)cc1Br [BDE153]	–	68.9 ± 6.3	71.7 ± 9.9	2.71 ± 2.5	2.62 ± 0.49	1 ± 0.88	–	6.21 ± 3.4	–	44.6 ± 2.3
O=C1CC2(CCCCC2)CN1 [Gabapentin-Lactam]	22.3 ± 0.47	28.5 ± 1.6	31.2 ± 1.6	19.4 ± 2.5	15.6 ± 1.9	9.93 ± 1.6	44.2 ± 6.2	49.4 ± 1.6	48.4 ± 5.6	71.2 ± 2.9
C#C[C@]1(OC(C)=O)CC[C@H]2[C@@H]3CCC4=CC(=NO)CC[C@@H]4[C@H]3CC[C@@]21CC (mixture of isomers) [Norgestimate]	15.9 ± 6.2	9.35 ± 5.2	13.5 ± 8.6	1.42 ± 1.2	–	–	–	–	24.5 ± 5.8	–
CO/C=C(/C(=O)O)c1ccccc1Oc1cc(Oc2ccccc2C#N)ncn1 [Azoxystrobin acid]	–	0.00158 ± 0.0027	–	46.8 ± 4.8	50.4 ± 2	45.9 ± 2.3	–	–	51.7 ± 3.9	76.6 ± 5.2
CN(C/C=C/C#CC(C)(C)C)Cc1cccc2ccccc12 [Terbinafine]	0.00204 ± 0.0035	0.065 ± 0.1	0.00509 ± 0.0088	0.265 ± 0.18	0.2 ± 0.089	0.0441 ± 0.0079	–	46.4 ± 1	50 ± 10	86.4 ± 13
C[C@]12CCC(=O)C=C1CC[C@@H]1[C@@H]2CC[C@]2(C)C(=O)CC[C@@H]12 [4-Androstene-3,17-dione]	39.8 ± 3	43.4 ± 1.7	42.6 ± 3.7	1.37 ± 2.1	4.32 ± 1.8	1.36 ± 1.8	–	–	49.8 ± 8.7	–
N#Cc1nn(-c2c(Cl)cc(C(F)(F)F)cc2Cl)c(N)c1S(=O)(=O)C(F)(F)F [Fipronil sulfone]	27.8 ± 0.78	32.2 ± 2.1	31 ± 0.79	41.6 ± 14	34.1 ± 7.7	30.8 ± 9.5	–	36.7 ± 3.6	67.9 ± 8.3	67.4 ± 7.9
Clc1ccc2c(c1)CCc1cccnc1C2=C1CCNCC1 [Desloratadine]	0.203 ± 0.15	0.0639 ± 0.025	0.452 ± 0.57	3.67 ± 0.83	4.32 ± 0.44	2.93 ± 0.67	2.22 ± 0.35	30.1 ± 1.7	–	59.9 ± 1.8
